Common to all, as to format: biochemical
One assay concerns the target T1, CPA (Homo sapiens, UniProt P15085).
T1 sequence (P15085 111-419): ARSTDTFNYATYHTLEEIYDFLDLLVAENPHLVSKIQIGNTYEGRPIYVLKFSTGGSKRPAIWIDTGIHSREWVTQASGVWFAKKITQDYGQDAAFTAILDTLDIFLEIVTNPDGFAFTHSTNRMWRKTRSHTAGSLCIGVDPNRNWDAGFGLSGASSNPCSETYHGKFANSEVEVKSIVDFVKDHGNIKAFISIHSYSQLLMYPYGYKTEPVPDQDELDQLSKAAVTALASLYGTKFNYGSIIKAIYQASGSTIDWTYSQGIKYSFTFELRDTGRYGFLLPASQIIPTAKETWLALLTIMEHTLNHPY
As to the kind of experiment: Protease/carboxypeptidase panel: CPA. From the text: Supplement srep32958-s1.docx, table 1: Table S1: Activities of Anabaenopeptins against a panel of proteases/carboxypeptidases. | column: CPA

The target of another assay is T2, CPN (Homo sapiens, UniProt P15169).
T2 sequence (P15169 21-458): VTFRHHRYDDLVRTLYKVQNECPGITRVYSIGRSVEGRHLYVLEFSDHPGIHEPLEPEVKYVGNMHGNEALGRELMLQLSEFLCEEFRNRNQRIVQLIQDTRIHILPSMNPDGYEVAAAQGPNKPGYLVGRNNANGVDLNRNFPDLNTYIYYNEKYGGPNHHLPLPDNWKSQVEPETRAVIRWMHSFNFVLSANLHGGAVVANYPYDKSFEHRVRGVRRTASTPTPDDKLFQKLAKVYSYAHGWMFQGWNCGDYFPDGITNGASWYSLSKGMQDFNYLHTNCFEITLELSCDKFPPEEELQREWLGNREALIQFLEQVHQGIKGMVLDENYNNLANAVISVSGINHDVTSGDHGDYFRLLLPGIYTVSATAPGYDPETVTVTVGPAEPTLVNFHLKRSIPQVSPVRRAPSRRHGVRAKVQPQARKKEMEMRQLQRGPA
T2 sequence (P22792 22-545 partner): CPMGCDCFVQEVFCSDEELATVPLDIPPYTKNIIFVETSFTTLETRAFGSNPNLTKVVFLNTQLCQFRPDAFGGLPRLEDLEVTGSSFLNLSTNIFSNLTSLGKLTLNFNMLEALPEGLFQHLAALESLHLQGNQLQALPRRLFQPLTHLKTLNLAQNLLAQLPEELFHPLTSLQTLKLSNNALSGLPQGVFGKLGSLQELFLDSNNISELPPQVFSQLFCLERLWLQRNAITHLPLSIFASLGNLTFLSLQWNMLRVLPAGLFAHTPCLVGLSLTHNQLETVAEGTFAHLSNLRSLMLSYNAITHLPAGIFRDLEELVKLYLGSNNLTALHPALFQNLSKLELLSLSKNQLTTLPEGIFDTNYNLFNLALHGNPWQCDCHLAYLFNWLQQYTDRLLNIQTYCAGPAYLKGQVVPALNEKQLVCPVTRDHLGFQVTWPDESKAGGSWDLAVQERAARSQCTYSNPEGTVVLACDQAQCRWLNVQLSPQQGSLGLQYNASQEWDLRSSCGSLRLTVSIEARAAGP
As to the kind of experiment: Protease/carboxypeptidase panel: CPN. The following applies: read-out: IC50 CPN. The source says: Supplement srep32958-s1.docx, table 1: Table S1: Activities of Anabaenopeptins against a panel of proteases/carboxypeptidases. | column: CPN

The target of another assay is FXa (Homo sapiens, UniProt P00742). As to the kind of experiment: Protease/carboxypeptidase panel: FXa. The following applies: for inhibition at 100 µM: read-out: Inh.@100µM in % FXa. The source says:
Supplement srep32958-s1.docx, table 1: Table S1: Activities of Anabaenopeptins against a panel of proteases/carboxypeptidases. | column: FXa

For a further assay, the target named is FIIa (Homo sapiens, UniProt P00734). Nature of the assay: Protease/carboxypeptidase panel: FIIa. To be noted: read-out: Ki FIIa. From the text:
Supplement srep32958-s1.docx, table 1: Table S1: Activities of Anabaenopeptins against a panel of proteases/carboxypeptidases. | column: FIIa

The next assay concerns the target T3, FVIIa (Homo sapiens, UniProt P08709).
T3 sequence (P08709 213-466 limits assumed): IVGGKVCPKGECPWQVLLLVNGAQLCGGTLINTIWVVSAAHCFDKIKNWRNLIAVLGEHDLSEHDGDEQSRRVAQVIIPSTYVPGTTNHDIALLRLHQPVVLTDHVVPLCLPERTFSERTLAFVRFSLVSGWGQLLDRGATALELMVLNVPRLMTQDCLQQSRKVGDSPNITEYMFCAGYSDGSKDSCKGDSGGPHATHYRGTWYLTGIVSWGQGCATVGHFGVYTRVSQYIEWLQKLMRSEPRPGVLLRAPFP
T3 sequence (P08709 61-212 partner limits assumed): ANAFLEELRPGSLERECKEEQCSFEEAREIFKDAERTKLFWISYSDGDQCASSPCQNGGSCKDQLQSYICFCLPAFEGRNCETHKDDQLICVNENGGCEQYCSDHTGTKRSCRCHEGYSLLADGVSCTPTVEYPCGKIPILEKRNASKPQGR
Nature of the assay: Protease/carboxypeptidase panel: FVIIa. The following applies: read-out: Inh.@100µM in % FVIIa. From the text:
Supplement srep32958-s1.docx, table 1: Table S1: Activities of Anabaenopeptins against a panel of proteases/carboxypeptidases. | column: FVIIa

Molecules are shown by their SMILES. Numbered stars: 1 amine (or outer) side, 2 acyl side, 3 side chain; on linkers, the order of the positions; unused ones are H or OH. Bridge positions count the residues as written; N and C are the ends. Square brackets hold non-standard residues; d marks the D form. Peptide text beside a SMILES is read from it. hTyr = N[CH](CCc1ccc(O)cc1)C(=O)O; NMeA = CN[CH](C)C(=O)O; CO = O=C([*:1])[*:2]

Sequence of FXa (P00742 235-488 limits assumed): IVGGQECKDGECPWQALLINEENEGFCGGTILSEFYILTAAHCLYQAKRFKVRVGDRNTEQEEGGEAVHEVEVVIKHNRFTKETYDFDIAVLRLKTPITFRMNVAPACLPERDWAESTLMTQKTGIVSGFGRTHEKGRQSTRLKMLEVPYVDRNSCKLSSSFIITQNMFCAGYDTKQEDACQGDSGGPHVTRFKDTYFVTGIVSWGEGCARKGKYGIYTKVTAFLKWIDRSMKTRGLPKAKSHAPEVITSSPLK
Sequence of FXa (P00742 41-179 partner limits assumed): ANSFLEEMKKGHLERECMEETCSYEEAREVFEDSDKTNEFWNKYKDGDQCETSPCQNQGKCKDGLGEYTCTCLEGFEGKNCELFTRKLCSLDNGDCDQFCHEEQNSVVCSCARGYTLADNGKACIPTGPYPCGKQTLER

As usually defined, the IC50 is the midpoint of a concentration-inhibition curve. A word on the Ki: it is a measure of affinity in units of concentration, obtained from inhibition or displacement. With `CC[C@H](C)[C@@H]1NC(=O)[C@H](NC(=O)N[C@@H](CCCNC(=N)N)C(=O)O)CCCCNC(=O)[C@H](Cc2ccccc2)NC(=O)[C@H](C)N(C)C(=O)[C@H](CCc2ccc(O)cc2)NC1=O` [Compound 3, Anabaenopeptin F] ({Arg-CO}-[dK]I[hTyr][NMeA]F; lactam 1-C), the concentration for half-maximal inhibition (IC50) against CPA was found to be 1.1 µM; on CPN it was 2.7 µM. The Ki on FXa stood at 38 µM; on FIIa, 0.35 µM.

In the case of `CC(C)C1NC(=O)C(NC(=O)NC(CCCCN)C(=O)O)CCCCNC(=O)C(Cc2ccccc2)NC(=O)C(C)N(C)C(=O)C(CCc2ccc(O)cc2)NC1=O` (centres unmarked) [Compound 2, Anabaenopeptin C] ({Lys-CO}-KV[hTyr][NMeA]F; lactam 1-C; configuration not given here), the inhibition at 100 µM was 31% at CPA (100 µM, read-out: Inh.@100µM in % CPA); 42% at FXa; 36% at FVIIa. Besides, the IC50 at CPN turned out to be 5.7 µM. The Ki at FIIa was found to be 6 µM.

In the case of `CC(C)[C@@H]1NC(=O)[C@H](NC(=O)N[C@@H](CCCNC(=N)N)C(=O)O)CCCCNC(=O)[C@H](Cc2ccccc2)NC(=O)[C@H](C)N(C)C(=O)[C@H](CCc2ccc(O)cc2)NC1=O` [Compound 1, Anabaenopeptin B] ({Arg-CO}-[dK]V[hTyr][NMeA]F; lactam 1-C), the IC50 against CPA was found to be 3.9 µM; on CPN it was 5.4 µM. Also, the results for the inhibition at 100 µM at FXa and at FVIIa were 22% and 35%, respectively. Besides, the Ki at FIIa is 1.6 µM.

Values taken from publication PMC5015106 (Scientific Reports, 2016).
